Experimental data from US9040571B2, “Veterinary formulation for administration of a water-insoluble drug to a target animal through a water distribution system” (Elanco Animal Health Ireland Limited, priority 1999, dated 2015).

Assay: Particle size distribution by static light scattering, storage stability
Type: physicochemical
Settings: 45 mm lens, tap-water
Protocol: Additionally, the particle size distribution of the original suspoemulsion was determined by static light scattering measurements using a 45 mm lens and tap-water. The stability of the undiluted suspoemulsion as measured by static light scattering measurements was followed over a period of 8 months. The results from the Turbiscan scan measurements were evaluated graphically. […] This implies that the diluted product stays stable under static conditions, like for example in the dosage tank of an automatic injection system.

particle size distribution at t = 0, (D[3, 2] in μm): 1.53 μm
Structure (SMILES): COC(=O)Nc1nc2cc(C(=O)c3ccc(F)cc3)ccc2[nH]1 [Fb powder, flubendazole]
